Measurements published in ChEMBL document CHEMBL4825774, “Sulfonylamide Compounds as CDK2 Inhibitors for Treating Cancer” (ACS Med Chem Lett, 2021).

Target: Cyclin-dependent kinase 2/cyclin E1 (Homo sapiens, UniProt P24941)
Test: Inhibition of human GST-tagged CDK2/FLAG-Cyclin E1 (unknown origin) expressed in baculovirus expression system incubated for 60 mins by HTRF enzyme activity assay

Row | Compound | IC50 [nM]
1 | CC[C@@H](N1C(=O)C2(CC2)c2cnc(Nc3ccc(S(=O)(=O)NC)cc3)nc21)C(F)(F)F | ≤ 50
2 | CNS(=O)(=O)c1ccc(Nc2ncc3c(n2)N([C@@H]2CCC[C@H]2C)C(=O)C32CC2)cc1 | ≤ 50
3 | CN(C)CCNS(=O)(=O)c1ccc(Nc2ncc3c(n2)N(c2cc(F)ccc2Cl)C(=O)C32CC2)cc1 | ≤ 50

More lines, now with the values ahead:

Row | IC50 [nM] | Compound
4 | ≤ 50 | CC1CCCC1N1C(=O)C2(CC2)c2cnc(Nc3ccc(S(=O)(=O)N[C@@H]4CCCN(C)C4)cc3)nc21 (stereo partly specified)
5 | ≤ 50 | CNS(=O)(=O)c1ccc(Nc2ncc3c(n2)N(c2cc4c(cc2Cl)CNCC4)C(=O)C32CC2)cc1
6 | ≤ 50 | CC1(NS(=O)(=O)c2ccc(Nc3ncc4c(n3)N([C@@H]3CCC[C@]3(C)O)C(=O)C43CC3)cc2)CNC1
